{"source": "patent US9127027B2", "about": "“Epoxyeicosatrienoic acid analogs and methods of making and using the same” (The Medical College of Wisconsin, Inc., priority 2011, dated 2015)", "key": {"bovine coronary artery": {"system": "bovine coronary artery", "test": "Vasorelaxant activity in bovine coronary artery rings precontracted with U-46619", "format": "cell-based", "conditions": "Bos taurus", "experimental": "Vasorelaxant activity was measured in bovine coronary artery. Bovine hearts were obtained and the left anterior descending coronary artery was dissected and cleaned of connective tissue. Vessels of 1 mm diameter were cut into rings of 3 mm width as previously described (3, 27, 39). […] The vessels were suspended from a pair of stainless steel hooks in a 6-ml water-jacketed organ chamber. […] One hook was anchored to a steel rod and the other hook to a force transducer (model FT-03C; Grass Instruments, West Warwick, R.I.). Tension of the vessel was measured by an ETH-400 bridge amplifier, and the data were acquired with a MacLab 8e analog-to-digital converter and MacLab software version 3.5.6 (AD Instruments, Milford, Mass.) and stored on a Macintosh computer for subsequent data analysis.\nBasal tension was set at the length-tension maximum of 3.5 g and equilibrated for 1.5 h. KCl (40 mM) was added to the chamber until reproducible maximal contractions were maintained. […] Cumulative additions of compounds were added to the chamber. Between concentration-response curves, the chambers were rinsed with fresh Krebs buffer, 40 mM KCl was administered to determine the maximum contraction, and the vessels were rinsed. Consecutive concentration-response curves were performed with 14,15-EET followed by a concentration-response curve to a compound. The experiment was always repeated with the order of the agonists reversed. […] The relaxation was plotted versus compound concentration and the EC50 determined utilizing statistical software."}, "Human recombinant sEH": {"molecular_target": "Human recombinant sEH (Homo sapiens (Human), UniProt P34913)", "sequence (P34913 whole entry)": "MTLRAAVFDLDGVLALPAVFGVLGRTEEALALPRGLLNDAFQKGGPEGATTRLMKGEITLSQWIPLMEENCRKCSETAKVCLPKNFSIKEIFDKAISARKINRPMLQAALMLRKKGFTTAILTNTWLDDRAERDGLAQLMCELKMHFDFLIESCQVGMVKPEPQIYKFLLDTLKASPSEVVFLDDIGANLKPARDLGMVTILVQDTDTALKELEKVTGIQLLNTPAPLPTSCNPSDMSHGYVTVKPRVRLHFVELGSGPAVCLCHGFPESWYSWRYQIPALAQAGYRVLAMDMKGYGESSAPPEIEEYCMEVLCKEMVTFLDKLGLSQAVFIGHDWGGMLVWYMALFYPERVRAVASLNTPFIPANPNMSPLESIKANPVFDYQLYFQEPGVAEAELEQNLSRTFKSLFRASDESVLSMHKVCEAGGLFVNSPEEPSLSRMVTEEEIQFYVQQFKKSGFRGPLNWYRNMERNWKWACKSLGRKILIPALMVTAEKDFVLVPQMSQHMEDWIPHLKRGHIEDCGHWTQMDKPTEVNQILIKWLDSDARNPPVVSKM", "test": "Soluble epoxide hydrolase inhibition (PHOME fluorescent substrate)", "format": "biochemical", "conditions": "Table 1 head prints μM (Table 2 prints nM for same numbers); read-out: sEHi IC50", "experimental": "Compounds were tested for their ability to inhibit recombinant soluble epoxide hydrolase (sEH) protein. The assay utilizes (3-Phhenyl-oxiranyl)-acetic acid cyano-(6-methoxy-naphthalen-2-yl)-methyl ester (PHOME), a sensitive substrate for sEH that can be used to monitor the activity of both human and murine enzymes. […] Human recombinant sEH was incubated with substrate and compounds ranging in concentration from 0.1 to 1000 nM."}}, "data": [{"smiles": "CCCCCNC(=O)NCCCC/C=C\\CCOc1cccc2sc(NC(C)=O)nc12", "note": "[Compound 33, N-(4-(8-(3-n-Pentylureido)oct-3(Z)-enyloxy)benzo[d]thiazol-2-yl)acetamide]", "values": [{"measurement": "activation at 10 µM", "setting": "bovine coronary artery; 10 μM, 100% relaxation = basal pre-U-46619 tension, read-out: Vascular Relax. % (10 μM)", "value": 73, "unit": "%"}, {"measurement": "EC50", "setting": "bovine coronary artery; bovine coronary artery, read-out: Vascular Relax. EC50", "value": 3300, "unit": "nM"}, {"measurement": "IC50", "setting": "Human recombinant sEH", "value": 0.282, "unit": "µM"}, {"measurement": "melting point", "value": "113.7 to 113.8", "unit": "°C"}]}]}
